In ChEMBL document CHEMBL1201862, “PubChem BioAssay data set” (2004):
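Where inhibition never reached the appropriate level, the endpoint shown equals the highest concentration tested. Otherwise, values were interpolated linearly from a five-concentration, 48-hour dose response in 96-well plates. The concentration for 50% growth inhibition is given as GI50.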 Active and inactive are the calls of the source. No stated cut-off is given here; in the data, active = GI50 up to about 1.1 µM and inactive = higher.

What was measured:
Assay in all cases: NCI-60 cell line screen, 48 h
[1] = tested on: SK-OV-3
[2] = tested on: SF-295
[3] = tested on: HOP-92
[4] = tested on: OVCAR-5
[5] = tested on: A498
[6] = tested on: OVCAR-8
[7] = tested on: Malme-3M
[8] = tested on: U-251
[9] = tested on: IGROV-1
[10] = tested on: CCRF-CEM
[11] = tested on: M14
[12] = tested on: NCI-H226
[13] = tested on: SK-MEL-5
[14] = tested on: RPMI-8226
[15] = tested on: HCT-116
[16] = tested on: HL-60
[17] = tested on: SW-620
[18] = tested on: LOX IMVI

O=C1C2=C(c3ccccc31)C(c1ccc([N+](=O)[O-])cc1)NC(S)=N2 (stereo not drawn)
GI50 [1]: > 100 µM (inactive)
GI50 [2]: 58.6 µM (inactive)
GI50 [3]: 51.1 µM (inactive)
GI50 [4]: > 100 µM (inactive)
GI50 [5]: > 100 µM (inactive)
GI50 [6]: > 10 µM (inactive)
GI50 [7]: 80.7 µM (inactive)
GI50 [8]: > 100 µM (inactive)
GI50 [9]: 50 µM (inactive)
GI50 [10]: 38.7 µM (inactive)
GI50 [11]: 91.2 µM (inactive)
GI50 [12]: 19.2 µM (inactive)
GI50 [13]: 27.4 µM (inactive)
GI50 [14]: 30.2 µM (inactive)
GI50 [15]: 38.5 µM (inactive)
GI50 [16]: 35.6 µM (inactive)
GI50 [17]: 81.1 µM (inactive)

COc1cc(O)c2c(c1O)C(=O)c1cc(C)ncc1C2=O
GI50 [18]: 13.9 µM (inactive)
GI50 [1]: 9.89 µM (inactive)
GI50 [2]: 19 µM (inactive)
GI50 [4]: 44.9 µM (inactive)
GI50 [5]: > 50 µM (inactive)
GI50 [6]: 21.8 µM (inactive)
GI50 [7]: 9.71 µM (inactive)
GI50 [8]: 12.9 µM (inactive)
GI50 [9]: 23.1 µM (inactive)
GI50 [10]: 19.2 µM (inactive)
GI50 [11]: 24.8 µM (inactive)
GI50 [12]: 45 µM (inactive)
GI50 [13]: 11.6 µM (inactive)
GI50 [14]: 22.9 µM (inactive)
GI50 [15]: 16.5 µM (inactive)
GI50 [16]: 17.7 µM (inactive)
GI50 [17]: 20.2 µM (inactive)

CC(C)C1CNC2N1C(=O)C2(C)OCc1ccccc1 (stereo not drawn)
GI50 [18]: > 100 µM (inactive)
GI50 [2]: > 100 µM (inactive)
GI50 [5]: > 100 µM (inactive)
GI50 [6]: > 100 µM (inactive)
GI50 [7]: > 100 µM (inactive)
GI50 [8]: > 100 µM (inactive)
GI50 [9]: > 100 µM (inactive)
GI50 [10]: > 100 µM (inactive)
GI50 [11]: > 100 µM (inactive)
GI50 [12]: 40.6 µM (inactive)
GI50 [13]: > 100 µM (inactive)
GI50 [14]: 91.2 µM (inactive)
GI50 [15]: > 100 µM (inactive)
GI50 [16]: > 100 µM (inactive)
GI50 [17]: > 100 µM (inactive)

COc1ccc2nc(-c3cccs3)cc(C(O)CN3CCSCC3)c2c1 (stereo not drawn)
GI50 [18]: 16.5 µM (inactive)
GI50 [1]: 39.6 µM (inactive)
GI50 [2]: 27.6 µM (inactive)
GI50 [3]: 14.3 µM (inactive)
GI50 [4]: 19.2 µM (inactive)
GI50 [6]: 16.6 µM (inactive)
GI50 [7]: 15.2 µM (inactive)
GI50 [8]: 19.2 µM (inactive)
GI50 [9]: 36 µM (inactive)
GI50 [10]: 11.9 µM (inactive)
GI50 [11]: 18.1 µM (inactive)
GI50 [13]: 16.4 µM (inactive)
GI50 [14]: 10.5 µM (inactive)
GI50 [16]: 2.58 µM (inactive)
GI50 [17]: 30.7 µM (inactive)

Cc1cc(Cl)ccc1NC1=NC(=O)C(CC(=O)Nc2ccc(Cl)cc2Cl)S1 (stereo not drawn)
GI50 [18]: > 100 µM (inactive)
GI50 [1]: > 100 µM (inactive)
GI50 [2]: > 100 µM (inactive)
GI50 [4]: > 100 µM (inactive)
GI50 [6]: > 100 µM (inactive)
GI50 [7]: > 100 µM (inactive)
GI50 [8]: > 100 µM (inactive)
GI50 [9]: > 100 µM (inactive)
GI50 [10]: > 100 µM (inactive)
GI50 [11]: > 100 µM (inactive)
GI50 [13]: > 100 µM (inactive)
GI50 [14]: > 100 µM (inactive)
GI50 [17]: > 100 µM (inactive)

C/C=C/C=C/C=C/C=C/C(=O)O
GI50 [18]: > 100 µM (inactive)
GI50 [1]: > 100 µM (inactive)
GI50 [2]: > 100 µM (inactive)
GI50 [4]: > 100 µM (inactive)
GI50 [5]: > 100 µM (inactive)
GI50 [6]: > 100 µM (inactive)
GI50 [7]: > 100 µM (inactive)
GI50 [8]: > 100 µM (inactive)
GI50 [9]: > 100 µM (inactive)
GI50 [10]: > 100 µM (inactive)
GI50 [11]: > 100 µM (inactive)
GI50 [12]: > 100 µM (inactive)
GI50 [13]: > 100 µM (inactive)
GI50 [14]: > 100 µM (inactive)
GI50 [15]: > 100 µM (inactive)
GI50 [16]: > 100 µM (inactive)
GI50 [17]: > 100 µM (inactive)

O=[N+]([O-])c1cc(-c2nnc(S)[nH]2)ccc1O
GI50 [18]: > 100 µM (inactive)
GI50 [1]: > 100 µM (inactive)
GI50 [2]: > 100 µM (inactive)
GI50 [4]: > 100 µM (inactive)
GI50 [5]: > 100 µM (inactive)
GI50 [7]: > 100 µM (inactive)
GI50 [8]: > 100 µM (inactive)
GI50 [9]: > 100 µM (inactive)
GI50 [10]: > 100 µM (inactive)
GI50 [11]: > 100 µM (inactive)
GI50 [13]: > 100 µM (inactive)
GI50 [15]: > 100 µM (inactive)
GI50 [16]: > 100 µM (inactive)
GI50 [17]: 4.06 µM (inactive)

COc1cc(NCC(C#N)C#N)ccc1/N=N/c1ccc(Cl)cc1
GI50 [18]: 18.2 µM (inactive)
GI50 [1]: 29.9 µM (inactive)
GI50 [2]: 22.3 µM (inactive)
GI50 [4]: 21.8 µM (inactive)
GI50 [5]: 44.7 µM (inactive)
GI50 [6]: 29.7 µM (inactive)
GI50 [7]: 35.2 µM (inactive)
GI50 [8]: 18.5 µM (inactive)
GI50 [9]: 30.5 µM (inactive)
GI50 [10]: 18.9 µM (inactive)
GI50 [11]: 16.4 µM (inactive)
GI50 [12]: 30.5 µM (inactive)
GI50 [13]: 23 µM (inactive)
GI50 [14]: 28.6 µM (inactive)
GI50 [15]: 23.7 µM (inactive)
GI50 [17]: 20.8 µM (inactive)

O=C(O)C1OC(Oc2cc(O)c3c(=O)cc(-c4ccc(O)cc4)oc3c2)C(O)C(O)C1O (stereo not drawn)
GI50 [18]: > 100 µM (inactive)
GI50 [2]: > 100 µM (inactive)
GI50 [3]: < 0.01 µM (active)
GI50 [4]: > 100 µM (inactive)
GI50 [6]: > 100 µM (inactive)
GI50 [7]: > 100 µM (inactive)
GI50 [8]: > 100 µM (inactive)
GI50 [11]: > 100 µM (inactive)
GI50 [12]: > 100 µM (inactive)
GI50 [13]: > 100 µM (inactive)
GI50 [15]: > 100 µM (inactive)
GI50 [16]: > 100 µM (inactive)
GI50 [17]: > 100 µM (inactive)

O=C1C2=C(c3ccccc31)C(c1ccccc1)NC(S)=N2 (stereo not drawn)
GI50 [1]: > 100 µM (inactive)
GI50 [2]: 31.9 µM (inactive)
GI50 [3]: 14.8 µM (inactive)
GI50 [4]: > 100 µM (inactive)
GI50 [5]: > 100 µM (inactive)
GI50 [6]: 35.2 µM (inactive)
GI50 [7]: > 100 µM (inactive)
GI50 [8]: 50.1 µM (inactive)
GI50 [9]: 75.3 µM (inactive)
GI50 [10]: 30.1 µM (inactive)
GI50 [11]: 55.1 µM (inactive)
GI50 [12]: > 100 µM (inactive)
GI50 [13]: 54.8 µM (inactive)
GI50 [14]: 40.6 µM (inactive)
GI50 [15]: 29 µM (inactive)
GI50 [16]: 17.9 µM (inactive)
GI50 [17]: 31 µM (inactive)

O=c1cc(-c2ccccc2)[nH]c2cc(Cl)cc(Cl)c12
GI50 [18]: 70 µM (inactive)
GI50 [1]: 23.6 µM (inactive)
GI50 [2]: 27 µM (inactive)
GI50 [3]: 25.5 µM (inactive)
GI50 [4]: > 100 µM (inactive)
GI50 [6]: 26.1 µM (inactive)
GI50 [7]: 20.6 µM (inactive)
GI50 [8]: 31.1 µM (inactive)
GI50 [9]: 52.7 µM (inactive)
GI50 [10]: > 100 µM (inactive)
GI50 [11]: > 100 µM (inactive)
GI50 [12]: 37.8 µM (inactive)
GI50 [13]: 37.8 µM (inactive)
GI50 [14]: > 100 µM (inactive)
GI50 [15]: 31.6 µM (inactive)
GI50 [16]: > 100 µM (inactive)
GI50 [17]: > 100 µM (inactive)

COC(=O)C1=CCON(c2ccccc2)C1c1ccccc1 (stereo not drawn)
GI50 [18]: 47.1 µM (inactive)
GI50 [1]: 53 µM (inactive)
GI50 [4]: 94.2 µM (inactive)
GI50 [7]: 48.1 µM (inactive)
GI50 [8]: 40.3 µM (inactive)
GI50 [9]: 97.3 µM (inactive)
GI50 [10]: 47.4 µM (inactive)
GI50 [11]: 32.2 µM (inactive)
GI50 [12]: 93.8 µM (inactive)
GI50 [14]: 29.2 µM (inactive)
GI50 [16]: 24.9 µM (inactive)
GI50 [17]: 70.5 µM (inactive)

CN(C)CC(/C(Cc1ccccc1)=N\NC(=S)NN)c1ccccc1 (stereo not drawn)
GI50 [18]: > 100 µM (inactive)
GI50 [1]: > 100 µM (inactive)
GI50 [2]: > 100 µM (inactive)
GI50 [3]: > 100 µM (inactive)
GI50 [4]: > 100 µM (inactive)
GI50 [6]: > 100 µM (inactive)
GI50 [7]: > 100 µM (inactive)
GI50 [8]: > 100 µM (inactive)
GI50 [9]: > 100 µM (inactive)
GI50 [11]: > 100 µM (inactive)
GI50 [12]: > 100 µM (inactive)
GI50 [14]: > 100 µM (inactive)
GI50 [15]: > 100 µM (inactive)
GI50 [16]: > 100 µM (inactive)
GI50 [17]: > 100 µM (inactive)
